These results are taken from ChEMBL document CHEMBL3351528, “Targeting dopamine D3 and serotonin 5-HT1A and 5-HT2A receptors for developing effective antipsychotics: synthesis, biological characterization, and behavioral studies” (J Med Chem, 2014).

For series [1], the system named is Mus musculus. The series can be described thus: Reduction in startle response in mouse at 30 mg/kg, po dosed 30 mins before testing. Conditions: in vivo, 0.5 h. The series is classed as ADME, organism-based. Also on record: dose 30 mg/kg, route oral.
Series [2] has as its system Heart. The series can be described thus: Cardiotoxicity in Langendorff-perfused Sprague-Dawley rat heart assessed as effect on left ventricle pressure up to 10 uM. The series is classed as toxicity, tissue-based.
The target in the next series is Histamine H1 receptor (Homo sapiens, UniProt P35367). Description: Binding affinity to human histamine H1 receptor.
For the next series, the target named is D(2) dopamine receptor (Homo sapiens, UniProt P14416).
Series [3] deals with Mus musculus. Description: Toxicity in mouse assessed as induction of memory impairment by measuring […] to enter dark compartment at 60 mg/kg, po administered 30 mins before training by passive avoidance test. The series is classed as organism-based. Also on record: dose 60 mg/kg, route oral. The note with it: in vivo, 0.5 h.
Series [4] deals with Mus musculus. Description: Effect on spontaneous exploratory locomotor activity in orally dosed NMRI mouse measured for 30 mins with activity counts each 5 mins. In kind it is ADME, organism-based. Conditions: in vivo, po, 0.5 h.
The subject of series [5] is Mus musculus. Description: Toxicity in mouse assessed as induction of memory impairment by measuring […] to enter dark compartment at 60 mg/kg, po administered 30 mins before training measured 24 hrs after acquisition trail by passive avoidance test. In kind it is organism-based. Further details: dose 60 mg/kg, route oral. The note with it: in vivo.
In series [6] the test system is Mus musculus. The series can be described thus: Effect on spontaneous locomotor activity in mouse at 30 mg/kg, ip. In kind it is ADME, organism-based. Further details: dose 30 mg/kg, route intraperitoneal. The note with it: in vivo.
For series [7], the target named is 5-hydroxytryptamine receptor 2A (Homo sapiens, UniProt P28223).
Description: Binding affinity to 5HT2A receptor (unknown origin)
For series [8], the system named is Mus musculus. Description: Effect on startle response in mouse at 3 to 30 mg/kg, po. In kind it is ADME, organism-based. Further details: dose 3-30 mg/kg, route oral. Conditions: in vivo.
Series [9] deals with Voltage-gated inwardly rectifying potassium channel KCNH2 (Homo sapiens, UniProt Q12809). Description: Inhibition of human ERG by whole cell based electrophysiology assay.
The target of series [10] is T1, hERG (KCNH2) (Homo sapiens, UniProt Q12809). Description: Inhibition of human ERG at 10 uM by whole cell based electrophysiology assay.
The next series deals with D(3) dopamine receptor (Homo sapiens, UniProt P35462).
Series [11] concerns Heart. The series can be described thus: Cardiotoxicity in Langendorff-perfused Sprague-Dawley rat heart assessed as effect on coronary perfusion pressure up to 10 uM. The series is classed as toxicity, tissue-based.
Series [12] concerns the target T2, 5-hydroxytryptamine receptor 1A (Homo sapiens, UniProt P08908).
T2 sequence (P08908 whole entry): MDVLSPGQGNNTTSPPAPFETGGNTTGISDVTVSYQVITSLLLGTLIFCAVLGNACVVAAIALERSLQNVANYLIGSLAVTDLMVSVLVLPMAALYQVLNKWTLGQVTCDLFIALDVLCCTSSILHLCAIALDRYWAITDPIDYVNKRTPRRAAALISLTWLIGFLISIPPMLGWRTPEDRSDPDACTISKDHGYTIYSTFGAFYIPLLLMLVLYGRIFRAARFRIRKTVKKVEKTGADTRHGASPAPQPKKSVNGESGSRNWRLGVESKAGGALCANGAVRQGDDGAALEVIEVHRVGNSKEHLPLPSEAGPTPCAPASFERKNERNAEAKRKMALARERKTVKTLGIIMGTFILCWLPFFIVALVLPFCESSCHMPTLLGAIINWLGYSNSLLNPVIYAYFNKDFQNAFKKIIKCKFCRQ
Description: Binding affinity to 5HT1A receptor (unknown origin)

Series [13] addresses 5-hydroxytryptamine receptor 2A (Rattus norvegicus, UniProt P14842). The series can be described thus: Antagonist activity at 5HT2A receptor in rat aortic rings assessed as reduction in 5-HT-induced contraction.
Series [14] concerns Mus musculus. The series can be described thus: Antipsychotic-like activity in orally dosed NMRI mouse assessed as reduction in MK801-induced locomotor activity dosed 15 to 30 mins before administration of MK801 measured for 60 mins. The series is classed as functional. Conditions: po, read-out: MED.
Series [15] concerns Mus musculus. Description: Antipsychotic-like activity in orally dosed NMRI mouse assessed as reduction in methamphetamine-induced locomotor activity dosed 15 to 30 mins before administration of methamphetamine measured for 60 mins. The series is classed as functional. Conditions: po, read-out: MED.
Series [16] concerns the target T1, hERG (KCNH2). The series can be described thus: Inhibition of human ERG at 3 uM by whole cell based electrophysiology assay.
Series [17] concerns the target T3, 5-hydroxytryptamine receptor 2C (Homo sapiens, UniProt P28335).
T3 sequence (P28335 whole entry): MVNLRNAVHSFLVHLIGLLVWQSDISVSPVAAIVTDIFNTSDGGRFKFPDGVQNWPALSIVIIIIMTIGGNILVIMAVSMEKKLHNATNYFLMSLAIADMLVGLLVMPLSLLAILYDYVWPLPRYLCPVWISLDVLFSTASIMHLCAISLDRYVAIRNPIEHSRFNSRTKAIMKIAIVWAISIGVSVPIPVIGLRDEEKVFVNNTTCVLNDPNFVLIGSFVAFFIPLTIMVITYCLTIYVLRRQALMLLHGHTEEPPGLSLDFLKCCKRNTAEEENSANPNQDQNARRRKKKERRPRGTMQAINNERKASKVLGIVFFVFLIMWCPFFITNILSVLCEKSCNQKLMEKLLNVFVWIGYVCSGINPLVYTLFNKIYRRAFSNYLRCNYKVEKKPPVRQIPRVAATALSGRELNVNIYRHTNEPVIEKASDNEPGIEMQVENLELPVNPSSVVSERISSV
Description: Binding affinity to 5HT2C receptor (unknown origin)

Series [18] concerns the target T1, hERG (KCNH2). Description: Inhibition of human ERG at 1 uM by whole cell based electrophysiology assay.
For series [19], the target named is T2, 5-hydroxytryptamine receptor 1A. The series can be described thus: Agonist activity at human 5HT1A receptor (unknown origin) expressed in CHO cells by [35S]GTPgammaS binding assay. In kind it is functional, cell-based. In general terms: GTPγS is a poorly hydrolysed GTP analogue; its binding reports G protein activation.

SMILES strings stand for the structures. pEC50, pIC50, pKi: −log10 of the molar value.

T1 sequence (Q12809 whole entry): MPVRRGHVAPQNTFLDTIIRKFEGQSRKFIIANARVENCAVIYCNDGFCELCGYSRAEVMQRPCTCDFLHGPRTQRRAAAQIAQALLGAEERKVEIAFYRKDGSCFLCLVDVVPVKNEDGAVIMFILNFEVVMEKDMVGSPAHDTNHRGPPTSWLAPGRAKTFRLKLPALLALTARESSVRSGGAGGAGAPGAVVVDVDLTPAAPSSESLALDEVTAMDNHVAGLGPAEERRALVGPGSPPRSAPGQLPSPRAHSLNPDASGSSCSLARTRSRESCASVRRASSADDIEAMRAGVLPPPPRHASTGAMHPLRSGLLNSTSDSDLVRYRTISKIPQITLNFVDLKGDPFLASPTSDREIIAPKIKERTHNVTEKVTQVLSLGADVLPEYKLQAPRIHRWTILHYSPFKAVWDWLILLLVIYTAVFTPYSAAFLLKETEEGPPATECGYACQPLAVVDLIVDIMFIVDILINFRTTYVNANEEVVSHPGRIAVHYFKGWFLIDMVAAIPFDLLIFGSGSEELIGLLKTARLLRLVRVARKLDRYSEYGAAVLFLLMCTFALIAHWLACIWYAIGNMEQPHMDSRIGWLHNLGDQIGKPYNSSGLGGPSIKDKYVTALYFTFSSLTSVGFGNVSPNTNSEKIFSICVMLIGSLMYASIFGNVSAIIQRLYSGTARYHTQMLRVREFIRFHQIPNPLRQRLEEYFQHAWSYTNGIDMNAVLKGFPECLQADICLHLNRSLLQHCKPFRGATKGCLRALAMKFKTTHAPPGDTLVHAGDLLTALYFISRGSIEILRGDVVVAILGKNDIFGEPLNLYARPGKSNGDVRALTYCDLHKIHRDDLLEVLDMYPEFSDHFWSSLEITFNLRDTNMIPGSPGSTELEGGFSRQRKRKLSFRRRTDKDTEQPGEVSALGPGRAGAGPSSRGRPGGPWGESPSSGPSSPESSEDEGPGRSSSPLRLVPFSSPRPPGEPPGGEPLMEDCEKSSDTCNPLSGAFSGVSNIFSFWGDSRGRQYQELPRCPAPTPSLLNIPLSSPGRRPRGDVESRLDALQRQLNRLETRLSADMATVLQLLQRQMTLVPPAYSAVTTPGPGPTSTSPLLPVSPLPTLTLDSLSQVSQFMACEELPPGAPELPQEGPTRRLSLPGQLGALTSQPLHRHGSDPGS
Chain of D(2) dopamine receptor (P14416 whole entry): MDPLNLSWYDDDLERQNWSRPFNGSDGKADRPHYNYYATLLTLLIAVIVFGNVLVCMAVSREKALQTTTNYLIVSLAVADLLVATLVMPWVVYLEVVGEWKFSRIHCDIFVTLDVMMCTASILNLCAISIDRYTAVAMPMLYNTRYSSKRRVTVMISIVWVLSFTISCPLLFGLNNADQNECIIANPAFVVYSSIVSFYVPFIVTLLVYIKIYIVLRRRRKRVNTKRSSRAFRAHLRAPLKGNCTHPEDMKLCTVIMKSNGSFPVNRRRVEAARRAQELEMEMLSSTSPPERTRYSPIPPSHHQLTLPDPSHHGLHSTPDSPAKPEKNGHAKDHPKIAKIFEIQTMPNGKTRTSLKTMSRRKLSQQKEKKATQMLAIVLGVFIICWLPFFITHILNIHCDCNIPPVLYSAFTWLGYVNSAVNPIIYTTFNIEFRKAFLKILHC
Chain of Voltage-gated inwardly rectifying potassium channel KCNH2 (Q12809 whole entry): as the sequence (Q12809 whole entry) above
Chain of 5-hydroxytryptamine receptor 2A (Homo sapiens, UniProt P28223) (P28223 whole entry): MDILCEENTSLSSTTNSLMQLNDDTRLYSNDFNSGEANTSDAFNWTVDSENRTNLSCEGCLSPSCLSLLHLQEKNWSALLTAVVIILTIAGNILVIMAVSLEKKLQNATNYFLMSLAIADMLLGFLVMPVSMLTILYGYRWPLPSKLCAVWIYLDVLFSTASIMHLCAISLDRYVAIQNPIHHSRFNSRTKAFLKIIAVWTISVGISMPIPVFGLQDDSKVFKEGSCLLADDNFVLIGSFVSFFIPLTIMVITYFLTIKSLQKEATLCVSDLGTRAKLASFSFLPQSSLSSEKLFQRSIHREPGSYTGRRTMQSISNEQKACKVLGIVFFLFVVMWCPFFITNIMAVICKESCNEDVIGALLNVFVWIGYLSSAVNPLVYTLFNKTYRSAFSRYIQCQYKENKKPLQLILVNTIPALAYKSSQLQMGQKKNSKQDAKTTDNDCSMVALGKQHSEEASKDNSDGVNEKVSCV
Chain of Histamine H1 receptor (P35367 whole entry): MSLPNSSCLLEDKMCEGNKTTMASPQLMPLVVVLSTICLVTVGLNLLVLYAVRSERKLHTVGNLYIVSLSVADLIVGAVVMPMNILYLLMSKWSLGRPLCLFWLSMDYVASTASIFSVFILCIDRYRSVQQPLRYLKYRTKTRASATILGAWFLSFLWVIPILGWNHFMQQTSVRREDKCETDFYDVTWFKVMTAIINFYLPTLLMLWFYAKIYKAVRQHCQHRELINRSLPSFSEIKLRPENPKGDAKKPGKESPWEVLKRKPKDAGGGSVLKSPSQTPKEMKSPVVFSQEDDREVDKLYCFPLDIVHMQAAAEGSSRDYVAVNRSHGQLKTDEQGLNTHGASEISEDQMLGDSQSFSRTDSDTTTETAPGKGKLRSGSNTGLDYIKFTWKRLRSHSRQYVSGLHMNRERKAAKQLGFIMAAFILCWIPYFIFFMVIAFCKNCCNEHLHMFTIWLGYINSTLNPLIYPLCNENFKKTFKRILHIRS
Chain of D(3) dopamine receptor (P35462 whole entry, the tested form may be a part): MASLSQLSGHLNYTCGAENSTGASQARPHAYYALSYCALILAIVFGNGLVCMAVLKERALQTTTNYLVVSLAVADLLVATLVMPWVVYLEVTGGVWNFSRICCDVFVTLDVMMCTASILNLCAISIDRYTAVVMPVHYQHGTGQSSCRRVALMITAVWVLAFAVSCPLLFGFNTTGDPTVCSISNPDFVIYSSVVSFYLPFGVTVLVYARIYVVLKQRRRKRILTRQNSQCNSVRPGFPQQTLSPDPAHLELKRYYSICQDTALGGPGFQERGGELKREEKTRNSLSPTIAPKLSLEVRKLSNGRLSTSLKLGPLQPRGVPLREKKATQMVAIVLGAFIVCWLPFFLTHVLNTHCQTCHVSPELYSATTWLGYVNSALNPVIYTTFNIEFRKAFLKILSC
Chain of 5-hydroxytryptamine receptor 2A (Rattus norvegicus, UniProt P14842) (P14842 whole entry): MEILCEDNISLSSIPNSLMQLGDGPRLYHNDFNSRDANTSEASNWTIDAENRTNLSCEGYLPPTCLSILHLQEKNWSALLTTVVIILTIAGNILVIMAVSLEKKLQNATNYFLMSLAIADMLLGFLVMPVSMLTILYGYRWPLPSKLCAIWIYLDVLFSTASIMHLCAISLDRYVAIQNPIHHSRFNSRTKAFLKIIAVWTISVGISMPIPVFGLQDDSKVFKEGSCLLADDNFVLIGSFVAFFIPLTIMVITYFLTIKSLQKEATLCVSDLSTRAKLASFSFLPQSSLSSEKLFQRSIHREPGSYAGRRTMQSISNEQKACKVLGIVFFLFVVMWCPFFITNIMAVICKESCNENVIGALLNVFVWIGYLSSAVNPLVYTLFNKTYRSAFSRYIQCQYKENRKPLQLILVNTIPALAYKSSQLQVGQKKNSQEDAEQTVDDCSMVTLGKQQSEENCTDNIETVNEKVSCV
Description for D(2) dopamine receptor: Binding affinity to dopamine D2 receptor (unknown origin)
Description for D(3) dopamine receptor: Binding affinity to dopamine D3 receptor (unknown origin)

For `O=C(NCCCCN1CCN(c2ccccc2)CC1)c1ccc2ncccc2c1`, the Activity entry is “Toxic” with Mus musculus [1]; “Non-toxic” with Heart [2]; “Toxic” with Mus musculus [3]; “Non-toxic” with Mus musculus [5]; “Toxic” in the series on Mus musculus [6]; “Non-toxic” in the series on Mus musculus [8]. Besides, the Activity entry with Heart [11] is “Non-toxic”. Also, the pKi at Histamine H1 receptor is 6.96; on D(2) dopamine receptor, < 6.00; in series [7] it was 7.18; on D(3) dopamine receptor, 9.22; in [12], 7.00; in series [17], < 6.00. Further, the MED result with Mus musculus [4] is “<= 3 mg kg-1”. Further, the negative logarithm of the IC50 (pIC50) was 5.00 in series [9] and 5.59 in [13]. Also, on hERG (KCNH2) [10], the inhibition at 10 µM came to 47%. The minimal effective dose in the series on Mus musculus [14] was 10 mg/kg; in the series on Mus musculus [15], > 30 mg/kg. Besides, the inhibition at 3 µM against hERG (KCNH2) [16] turned out to be 24%. Also, the inhibition at 1 µM against hERG (KCNH2) [18] is 10%. Also, the pEC50 in series [19] is 5.74.

A word on the pKi: it is the negative decadic logarithm of the Ki, by convention in mol/L. A higher pKi goes with a low Ki. As a reminder, the pIC50 is −log10 of the IC50, conventionally taken in molar units. Usually inhibition stands for the share of the control response that was lost under treatment. A high value points to a strong effect. The term pEC50 denotes the EC50 on a negative log10 scale, so that one unit is a factor of ten. A higher pEC50 goes with a small EC50.
